# Earlier results as cited in PubChem BioAssay AID1259409 (Chemical Carcinogenesis Research Information System (CCRIS), 2018).
# Test system: rodent chemically induced tumor inhibition, incidence and multiplicity
# Experiment: CCRIS tumor inhibitor studies
# Settings: Carcinogen: OCHRATOXIN A, 303-47-9, Route [Inhibitor]: ORAL, Species: RAT, Dose [Carcinogen]: 0.4 MG/KG BW 3X/WK FOR LIFETIME, Promoter: NONE
structure (smiles),measurement,setting,value
O=S(=O)(O)CCS,outcome,"Dose [Inhibitor]: 1 G/L IN DRINKING WATER FOR LIFETIME (STUDY DURATION: LIFETIME), Strain/Sex: DA/FEMALE, Target Tissue: Type of Lesion: URETHRA: TRANSITIONAL CELL CARCINOMA","0/40 (0%), 0/40 (0%), 0%, not significant"
same,outcome,"Dose [Inhibitor]: 1 G/L IN DRINKING WATER FOR LIFETIME (STUDY DURATION: LIFETIME), Strain/Sex: DA/FEMALE, Target Tissue: Type of Lesion: URINARY BLADDER: TRANSITIONAL CELL CARCINOMA","0/40 (0%), 0/40 (0%), 0%, not significant"
same,"tumour outcome (control, treated, inhibition, significance)","Dose [Inhibitor]: 1 G/L IN DRINKING WATER FOR LIFETIME (STUDY DURATION: LIFETIME), Strain/Sex: DA/MALE, Target Tissue: Type of Lesion: KIDNEY: TUBULAR CELL ADENOMA","1/20 (5%), 0/20 (0%), 100%, not significant"
same,"tumour outcome (control, treated, inhibition, significance)","Dose [Inhibitor]: 1 G/L IN DRINKING WATER FOR LIFETIME (STUDY DURATION: LIFETIME), Strain/Sex: DA/MALE, Target Tissue: Type of Lesion: KIDNEY: TUBULAR CELL CARCINOMA","6/20 (30%), 2/20 (40%), -33%, not significant"
same,outcome,"Dose [Inhibitor]: 1 G/L IN DRINKING WATER FOR LIFETIME (STUDY DURATION: LIFETIME), Strain/Sex: DA/MALE, Target Tissue: Type of Lesion: URETHRA: TRANSITIONAL CELL CARCINOMA","0/20 (0%), 0/20 (0%), 0%, not significant"
same,outcome,"Dose [Inhibitor]: 1 G/L IN DRINKING WATER FOR LIFETIME (STUDY DURATION: LIFETIME), Strain/Sex: DA/MALE, Target Tissue: Type of Lesion: URINARY BLADDER: TRANSITIONAL CELL PAPILLOMA","0/20 (0%), 0/20 (0%), 0%, not significant"
same,outcome,"Dose [Inhibitor]: 1 G/L IN DRINKING WATER FOR LIFETIME (STUDY DURATION: LIFETIME), Strain/Sex: LEWIS/FEMALE, Target Tissue: Type of Lesion: KIDNEY: TUBULAR CELL ADENOMA","0/20 (0%), 0/20 (0%), 0%, not significant"
same,outcome,"Dose [Inhibitor]: 1 G/L IN DRINKING WATER FOR LIFETIME (STUDY DURATION: LIFETIME), Strain/Sex: LEWIS/FEMALE, Target Tissue: Type of Lesion: URETHRA: TRANSITIONAL CELL CARCINOMA","0/20 (0%), 0/20 (0%), 0%, not significant"
same,outcome,"Dose [Inhibitor]: 1 G/L IN DRINKING WATER FOR LIFETIME (STUDY DURATION: LIFETIME), Strain/Sex: LEWIS/MALE, Target Tissue: Type of Lesion: KIDNEY: TUBULAR CELL ADENOMA","0/20 (0%), 0/20 (0%), 0%, not significant"
same,"tumour outcome (control, treated, inhibition, significance)","Dose [Inhibitor]: 1 G/L IN DRINKING WATER FOR LIFETIME (STUDY DURATION: LIFETIME), Strain/Sex: LEWIS/MALE, Target Tissue: Type of Lesion: KIDNEY: TUBULAR CELL CARCINOMA","2/20 (10%), 1/20 (5%), 50%, not significant"
same,outcome,"Dose [Inhibitor]: 1 G/L IN DRINKING WATER FOR LIFETIME (STUDY DURATION: LIFETIME), Strain/Sex: LEWIS/MALE, Target Tissue: Type of Lesion: URETHRA: TRANSITIONAL CELL CARCINOMA","0/20 (0%), 0/20 (0%), 0%, not significant"
same,outcome,"Dose [Inhibitor]: 1 G/L IN DRINKING WATER FOR LIFETIME (STUDY DURATION: LIFETIME), Strain/Sex: LEWIS/MALE, Target Tissue: Type of Lesion: URINARY BLADDER: TRANSITIONAL CELL CARCINOMA","0/20 (0%), 0/20 (0%), 0%, not significant"
same,outcome,"Dose [Inhibitor]: 1 G/L IN DRINKING WATER FOR LIFETIME (STUDY DURATION: LIFETIME), Strain/Sex: LEWIS/MALE, Target Tissue: Type of Lesion: URINARY BLADDER: TRANSITIONAL CELL PAPILLOMA","0/20 (0%), 0/20 (0%), 0%, not significant"
same,outcome,"Dose [Inhibitor]: 1 G/LITER IN DRINKING WATER FOR LIFETIME (STUDY DURATION: LIFETIME), Strain/Sex: DA/FEMALE, Target Tissue: Type of Lesion: KIDNEY: TUBULAR CELL ADENOMA","0/40 (0%), 0/40 (0%), 0%, not significant"
same,outcome,"Dose [Inhibitor]: 1 G/LITER IN DRINKING WATER FOR LIFETIME (STUDY DURATION: LIFETIME), Strain/Sex: DA/FEMALE, Target Tissue: Type of Lesion: KIDNEY: TUBULAR CELL CARCINOMA","0/40 (0%), 0/40 (0%), 0%, not significant"
